The values below come from patent US20090036388A1, “Compounds” (priority 2007, published 2009).

The test system of test [1] is Plasmodium falciparum strain 3D7A. The test is described as follows: [3H] hypoxanthine incorporation IC50 assay, P. falciparum 3D7A. It is filed as cell-based. Particulars: 48 hours incubation; for IC50: Plasmodium falciparum. Here is the method: (§1) Plasmodium falciparum strains 3D7A and W2.
(§2) The culture medium comprised RPMI 1640 with 25 mM HEPES, sodium bicarbonate and glutamine (GIBCO™ cat. ref.: 52400), supplemented with 10% of pooled human sera AB (Bioreclamation HMSRM-AB)) and HT supplement (0.15 mM hypoxanthine and 24 μM thymidine), (GIBCO™ cat. ref.: 41065). Human sera were decomplemented 30 min. at 56° C., aliquoted and stored frozen at −20° C. until use in this culture medium.
(§3) Red blood cells AB—stock suspensions were prepared from whole blood bags coming from incomplete blood donation, provided by the Spanish Red Cross (<25 days after sampling). This “whole blood” was aliquoted and stored at 4° C.
(§4) To prepare red blood cells for the assay, the whole blood was centrifuged and washed 3 times with RPMI without serum. The upper phase, containing white blood cells was removed. The washed red blood cells were kept as a 50% suspension in complete medium. The prepared cells were stored at 4° C. and were employed in the assay at any time up to 4 days after preparation.
(§5) Test compounds were dissolved at 2 mg/ml in 100% DMSO on the day of the assay. If necessary, complete dissolution was achieved by gentle heating (the mixture was heated at a temperature <37° C.) and sonication (sonication bath).
(§6) For IC50 determinations, 10 serial 2-fold dilutions were prepared in complete medium in the presence of a constant amount of DMSO. Any obvious signs of insolubility of the stock solutions in 100% DMSO or precipitation when these solutions were diluted in assay media, were recorded.
(§7) Plasmodium falciparum strains were maintained in complete medium at an hematocrit of 5% in continuous culture using a method adapted from Trager and Jensen (1, 2).
(§8) The parasitemia was calculated by counting the percentage of parasitized erythrocytes by optical microscopy. Thin films of blood were made every day from each culture flask, fixed with methanol and stained for 10 min. in Giemsa (Merck, cat. ref.: 1.09204) at 10% in buffered water pH 7.2. The glass slides were observed and counted with an optical microscope (Nikon, Eclipse E200) equipped with a 100× immersion oil objective.
(§9) The culture was maintained at an hematocrit of 5%, with a daily change of medium and was diluted when parasitemia had reached about 5%.
(§10) [^3H] Hypoxanthine incorporation assay was conducted using a method adapted from Desjardins et al. (3). The assays were performed in 96 wells flat bottom microplates.
(§11) 1. Serial dilutions of the test compounds (50 μl of a 5× solution/well) were deposited in duplicate. Compounds of this invention (Table 1) were tested in this assay. Chloroquine and Azithromycin were used as control compounds for each assay.
(§12) 3. [^3H]-Hypoxanthine (Amersham Biosciences, cat. ref.: TRK74) was added extemporaneously to the inoculum suspension at a concentration of 1 μCi/ml (equating to […]). 200 μl of the resulting suspension was distributed into each well (other than the control well H12 described below) leading to a final volume of 250 μl per well, at 1% of hematocrit and 0.4% of parasitemia/well.
(§13) 4. In each plate, 2 columns were reserved for control wells: • Column 11: Positive control wells: PRBCs with 0.2% DMSO—(i) to determine DMSO solvent effect on parasite growth (at a final concentration of 0.2%) and (ii) to compare with cultures treated with test compounds. • Column 12 (comprising wells A12-H12): • A12-D12—Background value wells: Uninfected RBCs—blank control to obtain the background reading from RBCs without parasites.
(§14) E12-G12—Solvent effect wells: PRBCs without DMSO—to determine DMSO solvent effect on PRBCs by comparing these wells with column 11 wells.
(§15) H12—Non-radioactive well: PRBCs with cold hypoxanthine—(i) to carry out a thin blood film to determine parasitemia value after incubation by microscopy and (ii) to ensure that the parasites have grown properly during the assay. […]

The subject of test [2] is Plasmodium falciparum strain W2. Briefly: [3H] hypoxanthine incorporation IC50 assay, P. falciparum W2. It is filed as cell-based. The settings on record: P. falciparum W2, 48 hours incubation. Here is the method: as §1, §2, §3, §4, §5, §6, §7, §8, §9, §10, §11, §12, §13, §14, §15
Test [3] has as its system Plasmodium cynomolgi. The settings on record: rhesus monkey; cited from earlier work.
In test [4] the test system is Plasmodium berghei. Particulars: cited from earlier work.
Test [5] concerns Plasmodium yoelii nigeriensis. The settings on record: cited from earlier work.
Test [6] relates to Plasmodium vivax. The settings on record: non-immune patients, as compared to controls; cited from earlier work.
In test [7] the test system is Plasmodium falciparum. The settings on record: non-immune patients, as compared to controls; cited from earlier work.

Converted amounts (≈) assume the structure as drawn. Where only a bound is given, the exact number is not on record here.

With `CC[C@H]1OC(=O)[C@H](C)[C@@H](O)[C@H](C)[C@@H](O[C@@H]2O[C@H](C)C[C@H](N(C)C)[C@H]2OCCCNc2ccnc3cc(Cl)ccc23)[C@](C)(O)C[C@@H](C)CN(C)[C@H](C)[C@@H](OC(C)=O)[C@]1(C)O` [Example 4, 11-O-Acetyl-2′-O-{3-[(7-Chloro-4-quinolinyl)amino]propyl}-3-O-decladinosyl-9-deoxo-9a-methyl-9a-aza-9a-homoerythromycin A], the 50% inhibitory concentration (IC50) in test [1] and in test [2] was at most 0.1 µg/mL in each case.

For `CC[C@H]1OC(=O)[C@H](C)[C@@H](O[C@H]2C[C@@](C)(OC)[C@@H](O)[C@H](C)O2)[C@H](C)[C@@H](O[C@@H]2O[C@H](C)C[C@H](N(C)C)[C@H]2OCCCNc2ccnc3ccccc23)[C@](C)(O)C[C@@H](C)CN(C)[C@H](C)[C@@H](O)[C@]1(C)O` [Example 6, 2′-O-{3-[(4-quinolinyl)amino]propyl}-9-deoxo-9a-methyl-9a-aza-9a-homoerythromycin A], the IC50 in test [1] and in test [2] was at most 0.1 µg/mL throughout.

As for `CC[C@H]1OC(=O)[C@H](C)[C@@H](O[C@H]2C[C@@](C)(OC)[C@@H](O)[C@H](C)O2)[C@H](C)[C@@H](O[C@@H]2O[C@H](C)C[C@H](N(C)C)[C@H]2OCCCNC(=O)CNc2ccnc3ccccc23)[C@](C)(O)C[C@@H](C)CN(C)[C@H](C)[C@@H](O)[C@]1(C)O` [Example 9, 2′-O-[3-({2-[(4-quinolinyl)amino]ethanoyl}amino)propyl]-9-deoxo-9a-methyl-9a-aza-9a-homoerythromycin A], the half-maximal inhibitory concentration (IC50) in test [1] was 0.1 to 0.2 µg/mL (≈ 0.101 to 0.202 µM); in test [2], at most 0.1 µg/mL.

For `CC[C@H]1OC(=O)[C@H](C)[C@@H](O[C@H]2C[C@@](C)(OC)[C@@H](O)[C@H](C)O2)[C@H](C)[C@@H](O[C@@H]2O[C@H](C)C[C@H](N(C)C)[C@H]2OCCC(=O)NCCNc2ccnc3cc(Cl)ccc23)[C@](C)(O)C[C@@H](C)CN(C)[C@H](C)[C@@H](O)[C@]1(C)O` [Example 11, 2′-O-[3-({2-[(7-chloro-4-quinolinyl)amino]ethyl}amino)-3-oxopropyl]9-deoxo-9a-methyl—9a-aza-9a-homoerythromycin A], the 50% inhibitory concentration (IC50) in test [1] and in test [2] was at most 0.1 µg/mL throughout.

Regarding `CC[C@H]1OC(=O)[C@H](C)[C@@H](O[C@H]2C[C@@](C)(OC)[C@@H](O)[C@H](C)O2)[C@H](C)[C@@H](O[C@@H]2O[C@H](C)C[C@H](N(C)C)[C@H]2OCCCNC(=O)CNc2ccnc3cc(Cl)ccc23)[C@](C)(O)C[C@@H](C)CN(C)[C@H](C)[C@@H](O)[C@]1(C)O` [Example 7, 2′-O-[3-({2-[(7-chloro-4-quinolinyl)amino]ethanoyl}amino)propyl]-9-deoxo-9a-methyl-9a-aza-9a-homoerythromycin A], the IC50 in test [1] and in test [2] was at most 0.1 µg/mL throughout.

As to midecamycinin, in test [3], the “efficacy in monkey model” value was “no efficacy”. In addition, the “activity in mouse model” value in test [4] and in test [5] was “active” in each case.

With `CC[C@H]1OC(=O)[C@H](C)[C@@H](O)[C@H](C)[C@@H](O[C@@H]2O[C@H](C)C[C@H](N(C)C)[C@H]2OCCCNC(=O)CCCNc2ccnc3cc(Cl)ccc23)[C@](C)(O)C[C@@H](C)CN(C)[C@H](C)[C@@H](O)[C@]1(C)O` [Example 2, 2′-O-[3-({4-[(7-chloro-4-quinolinyl)amino]butanoyl}amino)propyl]-3-O-decladinosyl-9-deoxo-9a-methyl-9a-aza-9a-homoerythromycin A], the IC50 in test [1] and in test [2] was 0.1 to 0.2 µg/mL (≈ 0.112 to 0.224 µM) each time.

Regarding `CC[C@H]1OC(=O)[C@H](C)[C@@H](O[C@H]2C[C@@](C)(OC)[C@@H](O)[C@H](C)O2)[C@H](C)[C@@H](O[C@@H]2O[C@H](C)C[C@H](N(C)C)[C@H]2OCCCNC(=O)CCCNc2ccnc3ccccc23)[C@](C)(O)C[C@@H](C)CN(C)[C@H](C)[C@@H](O)[C@]1(C)O` [Example 12, 2′-O-[3-({4-[(4-quinolinyl)amino]butanoyl}amino)propyl]-9-deoxo-9a-methyl-9a-aza-9a-homoerythromycin A], the IC50 in test [1] fell in the range of 0.2 to 1 µg/mL (≈ 0.196 to 0.982 µM); in test [2], 0.1 to 0.2 µg/mL (≈ 0.0982 to 0.196 µM).

As to `CC[C@H]1OC(=O)[C@H](C)[C@@H](O[C@H]2C[C@@](C)(OC)[C@@H](O)[C@H](C)O2)[C@H](C)[C@@H](O[C@@H]2O[C@H](C)C[C@H](N(C)C)[C@H]2O)[C@](C)(O)C[C@@H](C)CN(C)[C@H](C)[C@@H](O)[C@]1(C)O` [azithromycin], the “efficacy in monkey model” value in test [3] was “active”. In test [6], the “prophylactic efficacy for Plasmodium vivax” value is recorded as 98.9%. For the same molecule, the “IC50 3D7A” value in test [1] was “H, >H”. Moreover, the “prophylactic efficacy for Plasmodium falciparum” value in test [7] is 71.6%. In test [2], this molecule registered an IC50 of 2.5 to 3 µg/mL (≈ 3.34 to 4.01 µM).

As for `CC[C@H]1OC(=O)[C@H](C)[C@@H](O[C@H]2C[C@@](C)(OC)[C@@H](O)[C@H](C)O2)[C@H](C)[C@@H](O[C@@H]2O[C@H](C)C[C@H](N(C)C)[C@H]2OCCCNc2ccnc3cc(Cl)ccc23)[C@](C)(O)C[C@@H](C)CN(C)[C@H](C)[C@@H](O)[C@]1(C)O` [Example 3, 2′-O-{3-[(7-Chloro-4-quinolinyl)amino]propyl}-9-deoxo-9a-methyl-9a-aza-9a-homoerythromycin A], the IC50 in test [1] and in test [2] was at most 0.1 µg/mL throughout.

On to `CC[C@H]1OC(=O)[C@H](C)[C@@H](O)[C@H](C)[C@@H](O[C@@H]2O[C@H](C)C[C@H](N(C)C)[C@H]2OCCCNc2ccnc3cc(Cl)ccc23)[C@](C)(O)C[C@@H](C)CN(C)[C@H](C)[C@@H](O)[C@]1(C)O` [Example 5, 2′-O-{3-[(7-Chloro-4-quinolinyl)amino]propyl}-3-O-decladinosyl-9-deoxo-9a-methyl-9a-aza-9a-homoerythromycin A], for which the IC50 in test [1] and in test [2] was at most 0.1 µg/mL in each case.

As for `CC[C@H]1OC(=O)[C@H](C)[C@@H](O)[C@H](C)[C@@H](O[C@@H]2O[C@H](C)C[C@H](N(C)C)[C@H]2OCCCNC(=O)CNc2ccnc3cc(Cl)ccc23)[C@](C)(O)C[C@@H](C)CN(C)[C@H](C)[C@@H](O)[C@]1(C)O` [Example 8, 2′-O-[3-({2-[(7-chloro-4-quinolinyl)amino]ethanoyl}amino)propyl]-3-O-decladinosyl-9-deoxo-9a-methyl-9a-aza-9a-homoerythromycin A], the 50% inhibitory concentration (IC50) in test [1] was at most 0.1 µg/mL; in test [2], 0.1 to 0.2 µg/mL (≈ 0.115 to 0.231 µM).

For `CC[C@H]1OC(=O)[C@H](C)[C@@H](O)[C@H](C)[C@@H](O[C@@H]2O[C@H](C)C[C@H](N(C)C)[C@H]2OCCCNC(=O)CNc2ccnc3ccccc23)[C@](C)(O)C[C@@H](C)CN(C)[C@H](C)[C@@H](O)[C@]1(C)O` [Example 10, 2′-O-[3-({2-[(4-quinolinyl)amino]ethanoyl}amino)propyl]-3-O-decladinosyl-9-deoxo-9a-methyl-9a-aza-9a-homoerythromycin A], the figures for the IC50 in test [1] and in test [2] were 1 to 2.5 µg/mL (≈ 1.2 to 3 µM) and 0.2 to 1 µg/mL (≈ 0.24 to 1.2 µM), respectively.

For `CC[C@H]1OC(=O)[C@H](C)[C@@H](O[C@H]2C[C@@](C)(OC)[C@@H](O)[C@H](C)O2)[C@H](C)[C@@H](O[C@@H]2O[C@H](C)C[C@H](N(C)C)[C@H]2OCCCNC(=O)CCCNc2ccnc3cc(Cl)ccc23)[C@](C)(O)C[C@@H](C)CN(C)[C@H](C)[C@@H](O)[C@]1(C)O` [Example 1, 2′-O-[3-({4-[(7-chloro-4-quinolinyl)amino]butanoyl}amino)propyl]-9-deoxo-9a-methyl-9a-aza-9a-homoerythromycin A], the IC50 in test [1] and in test [2] was at most 0.1 µg/mL throughout.

What is called IC50 is the concentration at which inhibition is half-maximal.
